Usually AC50 stands for the concentration at which the activity in the assay is half-maximal.

Structures are written as SMILES. Where only a bound is given, the exact number is not on record here.

In assay [1] the target is T1, Alpha-2B adrenergic receptor (Homo sapiens, UniProt P18089).
T1 sequence (P18089 whole entry): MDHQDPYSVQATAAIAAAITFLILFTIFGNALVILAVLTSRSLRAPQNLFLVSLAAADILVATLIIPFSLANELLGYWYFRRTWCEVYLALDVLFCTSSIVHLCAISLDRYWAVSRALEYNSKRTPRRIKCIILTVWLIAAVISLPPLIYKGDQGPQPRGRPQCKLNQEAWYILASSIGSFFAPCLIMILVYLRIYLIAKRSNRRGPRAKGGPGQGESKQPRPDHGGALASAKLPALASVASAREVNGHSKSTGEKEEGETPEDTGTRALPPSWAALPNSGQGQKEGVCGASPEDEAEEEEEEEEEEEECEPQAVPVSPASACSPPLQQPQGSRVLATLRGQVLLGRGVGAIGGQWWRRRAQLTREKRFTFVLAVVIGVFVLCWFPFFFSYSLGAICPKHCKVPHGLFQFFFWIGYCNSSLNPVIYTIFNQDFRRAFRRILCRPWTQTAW

The target in assay [2] is T2, Progesterone receptor (Homo sapiens, UniProt P06401).
T2 sequence (P06401 whole entry): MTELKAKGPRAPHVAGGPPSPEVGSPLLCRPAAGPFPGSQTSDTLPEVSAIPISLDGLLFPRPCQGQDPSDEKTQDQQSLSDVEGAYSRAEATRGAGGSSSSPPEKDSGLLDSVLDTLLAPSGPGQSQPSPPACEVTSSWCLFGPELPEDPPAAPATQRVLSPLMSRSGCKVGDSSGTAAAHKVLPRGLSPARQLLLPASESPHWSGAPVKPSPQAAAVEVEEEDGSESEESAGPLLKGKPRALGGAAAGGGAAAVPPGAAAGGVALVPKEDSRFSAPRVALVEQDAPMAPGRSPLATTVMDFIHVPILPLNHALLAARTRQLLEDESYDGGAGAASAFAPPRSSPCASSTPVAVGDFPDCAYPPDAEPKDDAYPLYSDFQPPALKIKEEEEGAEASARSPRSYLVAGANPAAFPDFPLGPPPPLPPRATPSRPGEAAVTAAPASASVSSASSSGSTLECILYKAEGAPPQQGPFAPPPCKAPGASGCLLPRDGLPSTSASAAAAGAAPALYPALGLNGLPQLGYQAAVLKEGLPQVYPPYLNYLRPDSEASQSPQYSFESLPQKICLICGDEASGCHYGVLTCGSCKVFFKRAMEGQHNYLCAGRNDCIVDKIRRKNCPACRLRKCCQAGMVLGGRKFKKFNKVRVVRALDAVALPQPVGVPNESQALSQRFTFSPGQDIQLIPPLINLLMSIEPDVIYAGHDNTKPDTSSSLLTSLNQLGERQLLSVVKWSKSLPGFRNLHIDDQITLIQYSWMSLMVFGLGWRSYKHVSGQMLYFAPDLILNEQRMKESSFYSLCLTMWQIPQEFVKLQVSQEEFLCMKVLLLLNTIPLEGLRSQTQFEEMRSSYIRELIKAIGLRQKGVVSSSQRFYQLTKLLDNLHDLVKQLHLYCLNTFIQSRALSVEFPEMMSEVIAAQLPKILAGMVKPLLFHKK
The class given is functional.

Assay [3] concerns the target 5-hydroxytryptamine receptor 2A (Homo sapiens, UniProt P28223). The class given is functional, cell-based.
The target in a further assay is Cannabinoid receptor 1 (Homo sapiens, UniProt P21554). Type of assay: functional, cell-based.
The target in assay [4] is Prostaglandin G/H synthase 1 (Homo sapiens, UniProt P23219). Type of assay: functional.
In assay [5] the target is T2, Progesterone receptor.
The next assay concerns the target Prothrombin (Homo sapiens, UniProt P00734). The class given is functional.
In assay [6] the target is Sodium-dependent noradrenaline transporter (Homo sapiens, UniProt P23975).
The target of assay [7] is 5-hydroxytryptamine receptor 2B (Homo sapiens, UniProt P41595). The class given is functional, cell-based.
In assay [8] the target is 3',5'-cyclic-AMP phosphodiesterase 4A (Homo sapiens, UniProt P27815). The class given is functional.
The target in assay [9] is Glutamate receptor ionotropic, NMDA 1 (Rattus norvegicus, UniProt P35439).
The next assay addresses Vasopressin V2 receptor (Homo sapiens, UniProt P30518).
For assay [10], the target named is Voltage-dependent L-type calcium channel subunit alpha-1C (Rattus norvegicus, UniProt P22002). The class given is functional.
In assay [11] the target is Beta-2 adrenergic receptor (Homo sapiens, UniProt P07550).
Also: assay procedure not described here.

Sequence of Beta-2 adrenergic receptor (P07550 whole entry): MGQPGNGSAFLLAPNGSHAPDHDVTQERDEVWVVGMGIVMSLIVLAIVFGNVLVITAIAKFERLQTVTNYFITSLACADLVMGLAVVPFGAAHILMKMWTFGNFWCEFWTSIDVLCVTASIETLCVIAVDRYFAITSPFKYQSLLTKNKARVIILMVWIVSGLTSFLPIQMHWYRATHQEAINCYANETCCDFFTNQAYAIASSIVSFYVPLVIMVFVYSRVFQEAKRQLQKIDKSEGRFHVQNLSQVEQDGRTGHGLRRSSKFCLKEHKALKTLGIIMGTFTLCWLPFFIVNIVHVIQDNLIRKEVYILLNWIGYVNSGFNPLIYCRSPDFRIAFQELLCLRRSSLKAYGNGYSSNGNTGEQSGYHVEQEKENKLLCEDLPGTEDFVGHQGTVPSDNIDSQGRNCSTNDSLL
Sequence of 5-hydroxytryptamine receptor 2B (P41595 whole entry): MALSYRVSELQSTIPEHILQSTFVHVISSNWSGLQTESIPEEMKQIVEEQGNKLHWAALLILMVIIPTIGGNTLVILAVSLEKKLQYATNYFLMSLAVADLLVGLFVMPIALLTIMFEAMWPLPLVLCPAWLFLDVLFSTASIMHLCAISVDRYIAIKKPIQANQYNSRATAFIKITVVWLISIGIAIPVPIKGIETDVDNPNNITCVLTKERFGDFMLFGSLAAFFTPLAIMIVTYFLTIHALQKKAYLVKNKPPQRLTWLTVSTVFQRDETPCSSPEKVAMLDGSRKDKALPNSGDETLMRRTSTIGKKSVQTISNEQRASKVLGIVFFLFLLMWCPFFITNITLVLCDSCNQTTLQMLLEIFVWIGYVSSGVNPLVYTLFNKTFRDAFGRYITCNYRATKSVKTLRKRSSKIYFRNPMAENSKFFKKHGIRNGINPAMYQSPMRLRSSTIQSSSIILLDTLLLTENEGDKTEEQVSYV
Sequence of 5-hydroxytryptamine receptor 2A (P28223 whole entry): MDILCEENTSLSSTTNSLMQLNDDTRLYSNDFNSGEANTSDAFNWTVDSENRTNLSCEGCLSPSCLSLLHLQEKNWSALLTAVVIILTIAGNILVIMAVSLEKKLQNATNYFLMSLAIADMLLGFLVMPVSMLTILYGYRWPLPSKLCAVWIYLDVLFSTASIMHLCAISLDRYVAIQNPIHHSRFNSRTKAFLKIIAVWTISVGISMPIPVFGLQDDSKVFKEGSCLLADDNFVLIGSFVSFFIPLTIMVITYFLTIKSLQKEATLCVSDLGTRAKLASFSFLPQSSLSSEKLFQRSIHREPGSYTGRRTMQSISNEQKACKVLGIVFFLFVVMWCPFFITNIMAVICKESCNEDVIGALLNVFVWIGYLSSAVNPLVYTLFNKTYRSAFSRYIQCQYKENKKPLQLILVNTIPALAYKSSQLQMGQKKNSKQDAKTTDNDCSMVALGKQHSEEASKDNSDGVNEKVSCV
Sequence of Vasopressin V2 receptor (P30518 whole entry): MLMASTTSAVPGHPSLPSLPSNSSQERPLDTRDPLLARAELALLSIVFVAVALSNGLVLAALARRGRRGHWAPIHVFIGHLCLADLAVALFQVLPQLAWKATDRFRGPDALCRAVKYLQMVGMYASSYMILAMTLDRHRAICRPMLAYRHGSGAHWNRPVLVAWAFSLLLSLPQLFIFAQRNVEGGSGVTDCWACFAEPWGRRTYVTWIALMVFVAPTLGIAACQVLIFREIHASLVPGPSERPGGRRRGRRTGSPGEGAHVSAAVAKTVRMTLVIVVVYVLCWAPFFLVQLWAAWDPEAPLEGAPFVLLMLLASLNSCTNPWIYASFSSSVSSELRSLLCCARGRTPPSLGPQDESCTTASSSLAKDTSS
Sequence of Prostaglandin G/H synthase 1 (P23219 whole entry): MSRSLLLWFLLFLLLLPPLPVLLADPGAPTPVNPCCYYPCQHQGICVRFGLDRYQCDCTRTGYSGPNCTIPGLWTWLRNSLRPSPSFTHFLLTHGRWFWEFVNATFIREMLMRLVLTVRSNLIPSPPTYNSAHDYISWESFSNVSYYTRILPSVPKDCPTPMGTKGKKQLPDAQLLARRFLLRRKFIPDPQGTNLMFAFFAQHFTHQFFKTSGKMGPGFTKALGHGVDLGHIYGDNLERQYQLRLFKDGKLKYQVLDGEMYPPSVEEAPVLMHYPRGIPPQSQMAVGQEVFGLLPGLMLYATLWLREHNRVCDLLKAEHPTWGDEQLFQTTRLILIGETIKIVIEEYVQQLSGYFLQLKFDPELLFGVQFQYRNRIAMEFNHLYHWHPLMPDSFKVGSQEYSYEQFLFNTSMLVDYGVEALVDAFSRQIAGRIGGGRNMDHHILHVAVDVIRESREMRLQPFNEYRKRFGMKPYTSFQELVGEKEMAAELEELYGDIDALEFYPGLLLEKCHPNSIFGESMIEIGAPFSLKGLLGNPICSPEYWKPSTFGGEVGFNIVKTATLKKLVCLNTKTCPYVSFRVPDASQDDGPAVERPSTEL
Sequence of Sodium-dependent noradrenaline transporter (P23975 whole entry): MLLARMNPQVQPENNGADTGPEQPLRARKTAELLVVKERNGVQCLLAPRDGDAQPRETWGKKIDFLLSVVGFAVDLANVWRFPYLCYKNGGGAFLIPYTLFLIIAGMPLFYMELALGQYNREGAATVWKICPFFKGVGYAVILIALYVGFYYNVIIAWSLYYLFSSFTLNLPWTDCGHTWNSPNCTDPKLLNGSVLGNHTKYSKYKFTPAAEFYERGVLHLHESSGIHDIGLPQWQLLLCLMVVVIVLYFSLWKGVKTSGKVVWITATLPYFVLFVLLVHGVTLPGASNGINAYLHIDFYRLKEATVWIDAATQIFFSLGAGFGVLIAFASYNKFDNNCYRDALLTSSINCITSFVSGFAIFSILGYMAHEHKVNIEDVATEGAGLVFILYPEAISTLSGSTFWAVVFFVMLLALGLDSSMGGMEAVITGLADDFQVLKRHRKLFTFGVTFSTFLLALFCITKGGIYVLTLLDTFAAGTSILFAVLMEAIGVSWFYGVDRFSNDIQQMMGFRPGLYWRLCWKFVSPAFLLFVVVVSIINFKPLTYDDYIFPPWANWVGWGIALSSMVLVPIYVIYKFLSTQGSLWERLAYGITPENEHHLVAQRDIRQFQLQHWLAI
Sequence of Cannabinoid receptor 1 (P21554 whole entry): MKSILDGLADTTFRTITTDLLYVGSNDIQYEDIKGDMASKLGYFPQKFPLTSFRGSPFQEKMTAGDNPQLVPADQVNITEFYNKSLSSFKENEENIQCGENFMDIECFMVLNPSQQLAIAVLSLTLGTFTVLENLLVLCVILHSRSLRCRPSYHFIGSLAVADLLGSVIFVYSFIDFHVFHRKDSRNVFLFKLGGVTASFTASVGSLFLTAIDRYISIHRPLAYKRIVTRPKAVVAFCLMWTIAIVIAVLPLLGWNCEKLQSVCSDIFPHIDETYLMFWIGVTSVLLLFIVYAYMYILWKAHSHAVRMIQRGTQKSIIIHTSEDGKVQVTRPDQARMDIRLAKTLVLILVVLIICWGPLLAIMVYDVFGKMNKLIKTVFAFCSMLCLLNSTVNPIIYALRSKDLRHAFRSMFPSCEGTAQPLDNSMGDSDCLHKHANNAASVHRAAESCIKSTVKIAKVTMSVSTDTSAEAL
Sequence of 3',5'-cyclic-AMP phosphodiesterase 4A (P27815 whole entry): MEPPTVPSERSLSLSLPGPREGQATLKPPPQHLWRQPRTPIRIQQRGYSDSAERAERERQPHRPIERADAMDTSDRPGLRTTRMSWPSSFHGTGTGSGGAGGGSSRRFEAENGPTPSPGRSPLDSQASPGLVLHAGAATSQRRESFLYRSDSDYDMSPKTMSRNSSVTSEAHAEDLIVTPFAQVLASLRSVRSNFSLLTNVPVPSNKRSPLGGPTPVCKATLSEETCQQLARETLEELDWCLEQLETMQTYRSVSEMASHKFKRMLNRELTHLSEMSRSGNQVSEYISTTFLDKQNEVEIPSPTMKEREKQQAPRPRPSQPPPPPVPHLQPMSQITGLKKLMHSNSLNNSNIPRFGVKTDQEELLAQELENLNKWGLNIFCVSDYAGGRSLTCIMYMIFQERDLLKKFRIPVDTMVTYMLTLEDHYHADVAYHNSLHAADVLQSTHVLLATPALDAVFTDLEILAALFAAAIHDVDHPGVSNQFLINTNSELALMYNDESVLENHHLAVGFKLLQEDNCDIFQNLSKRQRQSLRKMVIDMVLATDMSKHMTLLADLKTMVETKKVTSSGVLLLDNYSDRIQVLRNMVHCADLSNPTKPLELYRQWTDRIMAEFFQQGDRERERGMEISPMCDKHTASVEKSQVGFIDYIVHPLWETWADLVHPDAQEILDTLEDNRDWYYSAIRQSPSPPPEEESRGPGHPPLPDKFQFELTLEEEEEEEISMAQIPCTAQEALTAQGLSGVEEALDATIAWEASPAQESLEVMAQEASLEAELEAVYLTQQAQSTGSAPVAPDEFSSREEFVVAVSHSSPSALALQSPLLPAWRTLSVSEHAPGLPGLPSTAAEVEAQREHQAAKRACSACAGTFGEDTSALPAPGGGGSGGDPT

Consider `CCOCC(O)COc1ccc(NC(=O)CC[S+](C)C)cc1` (stereo unspecified), for which the AC50 (in [1]; at Progesterone receptor [2]; in [3]; at Cannabinoid receptor 1) was over 30 µM throughout.
Consider `O=C(O)[C@@H](S)[C@@H](S)C(=O)O`, for which the AC50 in assay [4] was over 30 µM; on Progesterone receptor [5], over 30 µM; at Prothrombin, 2.64 µM; in assay [6], over 30 µM; in [7], over 30 µM; in [8], over 30 µM.
On to `CCC[C@@]1(CCc2ccccc2)CC(O)=C([C@H](CC)c2cccc(NS(=O)(=O)c3ccc(C(F)(F)F)cn3)c2)C(=O)O1`, for which the AC50 (in assay [1]; at Progesterone receptor [2]; in assay [3]; on Cannabinoid receptor 1) was over 30 µM in each case.
On to `CN(C)CCc1c[nH]c2ccc(CS(=O)(=O)N3CCCC3)cc12` [ALMOTRIPTAN], for which the AC50 in [9] is over 30 µM; in assay [1], 30 µM; at Vasopressin V2 receptor it was over 30 µM; at Progesterone receptor [2] it was over 30 µM; in assay [3], 13 µM; at Cannabinoid receptor 1, over 30 µM.
As to `CC[N+](CC)(CCNC(=O)C(=O)NCC[N+](CC)(CC)Cc1ccccc1Cl)Cc1ccccc1Cl` [AMBENONIUM], the AC50 (in assay [9]; in [1]; at Vasopressin V2 receptor; in assay [10]; at Progesterone receptor [2]; in [3]) was over 30 µM throughout. At Cannabinoid receptor 1, this compound displayed an AC50 of over 30 µM.
`NCCCNCCSP(=O)(O)O` [AMIFOSTINE]: the AC50 (in assay [9]; in assay [11]; at Vasopressin V2 receptor; at Cannabinoid receptor 1) was over 30 µM in each case.
`CN1CC2c3ccccc3Oc3ccc(Cl)cc3C2C1` (stereo unspecified) [ASENAPINE]: the AC50 (at Progesterone receptor [2]; in assay [3]; on Cannabinoid receptor 1) was over 30 µM throughout.
For `Cn1cnc2c(F)c(Nc3ccc(Br)cc3F)c(C(=O)NOCCO)cc21` [BINIMETINIB], the AC50 (in assay [1]; on Progesterone receptor [2]; in assay [3]; on Cannabinoid receptor 1) was over 30 µM each time.
For `CN(C)CCOC(c1ccc(Cl)cc1)c1ccccn1` (stereo unspecified) [CARBINOXAMINE], the concentration at half-maximal activity (AC50) in assay [9] was over 30 µM; in assay [1], 19 µM; at Vasopressin V2 receptor it was over 30 µM; on Progesterone receptor [2], over 30 µM; in assay [3] it was over 30 µM; at Cannabinoid receptor 1, over 30 µM.
With `C[C@H](CCC(=O)O)[C@H]1CC[C@H]2[C@@H]3[C@H](O)C[C@@H]4C[C@H](O)CC[C@]4(C)[C@H]3CC[C@]12C` [CHENODIOL], the concentration at half-maximal activity (AC50) (in assay [1]; in assay [3]; on Cannabinoid receptor 1) was over 30 µM in each case.
As to `O=C(O)[C@H]1/C(=C/CO)O[C@@H]2CC(=O)N21` [CLAVULANIC ACID], the AC50 (in assay [1]; on Progesterone receptor [2]; in assay [3]; at Cannabinoid receptor 1) was over 30 µM throughout.
As for `CC(C)/N=c1\cc2n(-c3ccc(Cl)cc3)c3ccccc3nc-2cc1Nc1ccc(Cl)cc1` [CLOFAZIMINE], the AC50 in assay [9] was 22 µM; in assay [1], over 30 µM; in assay [11], over 30 µM; at Vasopressin V2 receptor it was over 30 µM; in assay [10], 5 µM; at Progesterone receptor [2] it was over 30 µM. Also, the AC50 (in assay [3]; on Cannabinoid receptor 1) was over 30 µM each time.
Take `COC(=O)CCc1ccc(OCC(O)CNC(C)C)cc1` (stereo unspecified) [ESMOLOL]: the AC50 in [9] is over 30 µM; in assay [11], 27 µM; on Vasopressin V2 receptor it was over 30 µM; in assay [10], over 30 µM; on Progesterone receptor [2] it was over 30 µM.
For the compound `O=c1[nH]cc(F)c(=O)[nH]1` [FLUOROURACIL], the AC50 (in assay [4]; on Progesterone receptor [5]; at Vasopressin V2 receptor; on Prothrombin; on Progesterone receptor [2]; in assay [6]) was over 30 µM throughout. For the same compound, the AC50 in assay [7] and in [8] was over 30 µM throughout.
With `CCOC(=O)Nc1ccc(NCc2ccc(F)cc2)nc1N` [FLUPIRTINE], the AC50 (in assay [9]; in assay [1]; in assay [11]; on Vasopressin V2 receptor; in assay [10]; at Progesterone receptor [2]) was over 30 µM throughout. For the same compound, the AC50 (in [3]; on Cannabinoid receptor 1) was over 30 µM in each case.
In the case of `C[C@@H](O)[C@H]1C(=O)N2C(C(=O)O)=C(SCCN=CN)C[C@H]12` [IMIPENEM ANHYDROUS], the AC50 (in assay [1]; at Progesterone receptor [2]; in assay [3]; on Cannabinoid receptor 1) was over 300 µM in each case.
As to `N[C@@H](Cc1cc(I)c(Oc2cc(I)c(O)c(I)c2)c(I)c1)C(=O)O` [LEVOTHYROXINE], the AC50 (in assay [9]; in [1]; at Vasopressin V2 receptor; at Progesterone receptor [2]; in [3]; on Cannabinoid receptor 1) was over 30 µM in each case.
Turning to `CC(=O)NC[C@H]1CN(c2ccc(N3CCOCC3)c(F)c2)C(=O)O1` [LINEZOLID], the AC50 (in [9]; in assay [1]; on Vasopressin V2 receptor; at Progesterone receptor [2]; at Cannabinoid receptor 1) was over 30 µM each time.
Regarding `O=NN(CCCl)C(=O)NC1CCCCC1` [LOMUSTINE], the concentration at half-maximal activity (AC50) was over 30 µM in assay [4]; over 30 µM on Progesterone receptor [5]; over 30 µM at Prothrombin; over 30 µM in assay [6]; over 30 µM in assay [7]; 25.7 µM in assay [8].
For the compound `CO[C@@H]1[C@@H](OC(N)=O)[C@@H](O)[C@H](Oc2ccc3c(O)c(NC(=O)c4ccc(O)c(CC=C(C)C)c4)c(=O)oc3c2C)OC1(C)C` [NOVOBIOCIN], the AC50 (in assay [1]; at Progesterone receptor [2]; in assay [3]; at Cannabinoid receptor 1) was over 30 µM in each case.
In the case of `COc1cc2c(cc1OC)C1CC(=O)C(CC(C)C)CN1CC2` (stereo unspecified) [TETRABENAZINE], the AC50 (in assay [1]; on Progesterone receptor [2]; in [3]; on Cannabinoid receptor 1) was over 30 µM in each case.
`CC(C)(CO)c1cc2cc(NC(=O)C3(c4ccc5c(c4)OC(F)(F)O5)CC3)c(F)cc2n1C[C@@H](O)CO` [TEZACAFTOR]: the AC50 (in [1]; on Progesterone receptor [2]; in [3]; on Cannabinoid receptor 1) was over 30 µM in each case.
As for `c1cnc2cc3c(cc2n1)[C@@H]1CNC[C@H]3C1` [VARENICLINE], the half-maximal activity concentration (AC50) (in assay [1]; on Progesterone receptor [2]; in assay [3]; at Cannabinoid receptor 1) was over 30 µM in each case.
In the case of `Nc1c2c(nc3ccccc13)CCCC2O` (stereo unspecified) [VELNACRINE], the AC50 (in assay [1]; at Progesterone receptor [2]; in assay [3]; at Cannabinoid receptor 1) was over 30 µM in each case.

Values taken from ChEMBL document CHEMBL5291721, “A preclinical secondary pharmacology resource illuminates target-adverse drug reaction associations of marketed drugs” (Nat Commun, 2023).
